Where two headings read alike, the source gives them in different places.
Test system: mTOR (phospho-S6, pS6)
Experiment: In vitro mTOR inhibition by phospho-S6 (pS6) assay in LPS-stimulated splenocytes
Assay type: cell-based, C57BL/6 mice
Details: for IC50: read-out: Approximate IC50
[1] = half maximal inhibitory concentration of pS6 inhibition in IA/IE+ cells, splenocytes, phospho-S6 assay
[2] = Mus musculus, Splenocyte, half maximal inhibitory concentration of pS6 inhibition in IA/IE+ cells, splenocytes, phospho-S6 assay

Molecule | IC50 [1] | IC50 [2] | also measured
CO[C@H]1C[C@@H]2CC[C@@H](C)[C@@](O)(O2)C(=O)C(=O)N2CCCC[C@H]2C(=O)O[C@H]([C@H](C)C[C@@H]2CC[C@@H](OCCO)[C@H](OC)C2)CC(=O)[C@H](C)/C=C(\C)[C@@H](O)[C@@H](OC)C(=O)[C@H](C)C[C@H](C)/C=C/C=C/C=C/1C [Everolimus] | – | – | IC50 (Mus musculus, Splenocyte): 1 nM
CC(C)[C@H](N)C(=O)N[C@@H](CCCNC(N)=O)C(=O)N1CCN(c2ccc(-n3c(=O)ccc4cnc5ccc(-c6cnc7ccccc7c6)cc5c43)cc2C(F)(F)F)CC1 [Compound 105, Torin-1-ZV] | – | 210 nM | pS6 inhibition IC50 relative to Torin-1-piperazine (Compound 98) (splenocytes, pS6 assay): approximately equivalent
OH-PEG24-VZQLQPFPQPELPYPQPQLPYPQPQPFR-SPVZK(DBCO-N3)-Everolimus [Compound 145] | 185 nM | – | –
CCCCNC(=O)[C@H](CCCNC(N)=O)NC(=O)[C@@H](NC(=O)CO[C@@H]1CC[C@@H](C[C@@H](C)[C@@H]2CC(=O)[C@H](C)/C=C(\C)[C@@H](O)[C@@H](OC)C(=O)[C@H](C)C[C@H](C)/C=C/C=C/C=C(\C)[C@@H](OC)CC3CC[C@@H](C)[C@@](O)(O3)C(=O)C(=O)N3CCCCC3C(=O)O2)C[C@H]1OC)C(C)C (stereo partly drawn) [Compound 141, Everolimus -Val-Cit-nBu] | – | 30 nM | fold reduction in IC50 potency (pS6) relative to Everolimus (splenocytes, pS6 assay): 30 fold
Torin-1-C3-COOH [Compound 123] | > 500 nM | – | –
OH-PEG24-VZQLQPFPQPELPYPQPQLPYPQPQPFR-SPVZ-(X DBCO)-Ahx-WWK(Everolimus)WW [Compound 143] | 150 nM | – | –
CC(C)[C@H](N)C(=O)N[C@@H](CCCNC(N)=O)C(=O)NCCC(=O)N1Cc2ccccc2C#Cc2ccccc21 [Compound 124, Val-Cit-DBCO] | – | 150 nM | –
Everolimus -N3-DBCO-COOH [Compound 142] | 16 nM | – | fold reduction in IC50 potency (pS6) relative to Everolimus (splenocytes, pS6 assay): 16 fold

Second part, led by results:

IC50 [1] | IC50 [2] | Molecule | also measured
– | 10 nM | CO[C@H]1CCOCC(=O)C(=O)N2CCCC[C@H]2C(=O)O[C@H]([C@H](C)C[C@@H]2CC[C@@H](OCCN)[C@H](OC)C2)CC(=O)[C@H](C)/C=C(\C)[C@@H](O)[C@@H](OC)C(=O)[C@@H](C)C[C@H](C)/C=C/C=C/C=C/1C [Compound 108, Everolimus-amine] | fold reduction in IC50 potency (pS6) relative to Everolimus (splenocytes, pS6 assay): 10 fold
13 nM | – | OH-PEG24-VZQLQPFPQPELPYPQPQLPYPQPQPFR-SPVZ(X-DBCO)-Ahx-WWK(ZV-Everolimus)WW [Compound 144] | pS6 IC50 compared to matched peptide antigen conjugates using an amide based linkage (Compound 143 and 145) (splenocytes, pS6 assay): more potent IC50
– | 1 nM | CO[C@H]1C[C@@H]2CC[C@@H](C)[C@@](O)(O2)C(=O)C(=O)N2CCCC[C@H]2C(=O)O[C@H]([C@H](C)C[C@@H]2CC[C@@H](O)[C@H](OC)C2)CC(=O)[C@H](C)/C=C(\C)[C@@H](O)[C@@H](OC)C(=O)[C@H](C)C[C@H](C)/C=C/C=C/C=C/1C [Rapamycin] | –
– | 1 nM | CO[C@H]1CCOCC(=O)C(=O)N2CCCC[C@H]2C(=O)O[C@H]([C@H](C)C[C@@H]2CC[C@@H](OCCN=[N+]=[N-])[C@H](OC)C2)CC(=O)[C@H](C)/C=C(\C)[C@@H](O)[C@@H](OC)C(=O)[C@@H](C)C[C@H](C)/C=C/C=C/C=C/1C [Compound 109, Everolimus-azide] | impact on IC50 (pS6) of conversion from Everolimus (splenocytes, pS6 assay): no impact on IC50
74 nM | – | OH-PEG24-VZQLQPFPQPELPYPQPQLPYPQPQPFR-SPVZX(DBCO-Ahx-ZV-Everolimus) [Compound 146] | pS6 IC50 compared to matched peptide antigen conjugates using an amide based linkage (Compound 143 and 145) (splenocytes, pS6 assay): more potent IC50

— patent US12642851B2, “Self-assembling nanoparticles” (Barinthus Biotherapeutics North America, Inc., priority 2022, dated 2026)
